US11535615B2, “Heterocyclic compounds as immunomodulators” (Incyte Corporation, priority 2015, dated 2022)

Each compound was assayed against PD-1/PD-L1 protein/protein interaction (Homo sapiens (Human), UniProt Q9NZQ7) (assay: PD-1/PD-L1 Homogeneous Time-Resolved Fluorescence (HTRF) Binding Assay). Conditions: recombinant human PD-L1 (19-238) His-tag and human PD-1 (25-167) Fc tag; PBS pH 7.4.
Protocol: Example A. PD-1/PD-L1 Homogeneous Time-Resolved Fluorescence (HTRF) Binding Assay
The assays were conducted in a standard black 384-well polystyrene plate with a final volume of 20 μL. Inhibitors were first serially diluted in DMSO and then added to the plate wells before the addition of other reaction components. The final concentration of DMSO in the assay was 1%. The assays were carried out at […] in the PBS buffer (pH 7.4) with 0.05% Tween-20 and 0.1% BSA. Recombinant human PD-L1 protein (19-238) with a His-tag at the C-terminus was purchased from AcroBiosystems (PD1-H5229). Recombinant human PD-1 protein (25-167) with Fc tag at the C-terminus was also purchased from AcroBiosystems (PD1-H5257). PD-L1 and PD-1 proteins were diluted in the assay buffer and 10 μL was added to the plate well. Plates were centrifuged and proteins were preincubated with inhibitors for 40 minutes. The incubation was followed by the addition of 10 μL of HTRF detection buffer supplemented with Europium cryptate-labeled anti-human IgG (PerkinElmer-AD0212) specific for Fc and anti-His antibody conjugated to SureLight®-Allophycocyanin (APC, PerkinElmer-AD0059H). After centrifugation, the plate was incubated at 25° C. for 60 min. before reading on a PHERAstar FS plate reader (665 nm/620 nm ratio). Final concentrations in the assay were […] PD1, 10 nM PD-L1, 1 nM europium anti-human IgG and 20 nM anti-His-Allophycocyanin. IC50 determination was performed by fitting the curve of percent control activity versus the log of the inhibitor concentration using the GraphPad Prism 5.0 software.

PD-1/PD-L1 protein/protein interaction, sequence (Q9NZQ7 19-238): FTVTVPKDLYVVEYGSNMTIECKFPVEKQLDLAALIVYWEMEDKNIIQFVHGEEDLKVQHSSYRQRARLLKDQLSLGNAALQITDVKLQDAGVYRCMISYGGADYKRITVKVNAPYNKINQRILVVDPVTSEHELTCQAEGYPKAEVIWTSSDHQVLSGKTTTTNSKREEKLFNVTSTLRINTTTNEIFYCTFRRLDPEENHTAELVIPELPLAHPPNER

SMILES | IC50
Cc1c(Nc2cccc3cc(CNCCO)cnc23)cccc1-c1ccccc1 [Example 1, 2-[({8-[(2-methylbiphenyl-3-yl)amino]quinolin-3-yl}methyl)amino]ethanol] | 10 to 100 nM
Cc1c(Nc2nccc3cc(CNCCO)cnc23)cccc1-c1ccccc1 [Example 2, 2-[({8-[(2-methylbiphenyl-3-yl)amino]-1,7-naphthyridin-3-yl}methyl)amino]ethanol] | ≤ 10 nM
Cc1c(Nc2nccc3cc(CN4CCCCC4C(=O)O)cnc23)cccc1-c1ccccc1 (stereo not drawn) [Example 3, 1-({8-[(2-methylbiphenyl-3-yl)amino]-1,7-naphthyridin-3-yl}methyl)piperidine-2-carboxylic Acid] | 10 to 100 nM
Cc1c(Nc2ncnc3cc(CN4CCCCC4C(=O)O)cnc23)cccc1-c1ccccc1 (stereo not drawn) [Example 4, 1-({4-[(2-methylbiphenyl-3-yl)amino]pyrido[3,2-d]pyrimidin-7-yl}methyl)piperidine-2-carboxylic Acid] | 10 to 100 nM
Cc1c(Nc2nccc3c(CN4CCCCC4C(=O)O)ccnc23)cccc1-c1ccccc1 (stereo not drawn) [Example 5, 1-({8-[(2-methylbiphenyl-3-yl)amino]-1,7-naphthyridin-4-yl}methyl)piperidine-2-carboxylic Acid] | ≤ 10 nM
Cc1c(Nc2nccc3c(CNCCO)ccnc23)cccc1-c1ccccc1 [Example 6, 2-[({8-[(2-methylbiphenyl-3-yl)amino]-1,7-naphthyridin-4-yl}methyl)amino]ethanol] | 10 to 100 nM
Cc1c(Nc2cccc3c(CNCCO)ccnc23)cccc1-c1ccccc1 [Example 7, 2-[({8-[(2-methylbiphenyl-3-yl)amino]quinolin-4-yl}methyl)amino]ethanol] | 10 to 100 nM
Cc1c(Nc2cccc3c(CN4CCCCC4C(=O)O)ccnc23)cccc1-c1ccccc1 (stereo not drawn) [Example 8, 1-({8-[(2-methylbiphenyl-3-yl)amino]quinolin-4-yl}methyl)piperidine-2-carboxylic Acid] | 10 to 100 nM
Cc1c(Nc2nccc3c(Cl)c(CNCCO)cnc23)cccc1-c1ccccc1 [Example 9, 2-[({4-chloro-8-[(2-methylbiphenyl-3-yl)amino]-1,7-naphthyridin-3-yl}methyl)amino]ethanol] | 10 to 100 nM
COc1c(CNCCO)cnc2c(Nc3cccc(-c4ccccc4)c3C)nccc12 [Example 10, 2-[({4-methoxy-8-[(2-methylbiphenyl-3-yl)amino]-1,7-naphthyridin-3-yl}methyl)amino]ethanol] | ≤ 10 nM
Cc1c(Nc2nccc3c(Cl)c(CN4CCCCC4C(=O)O)cnc23)cccc1-c1ccccc1 (stereo not drawn) [Example 11, 1-({4-chloro-8-[(2-methylbiphenyl-3-yl)amino]-1,7-naphthyridin-3-yl}methyl)piperidine-2-carboxylic Acid] | 10 to 100 nM
Cc1c(Nc2nccc3c(CNCCO)ccnc23)cccc1-c1ccc2c(c1)OCCO2 [Example 12, 2-{[(8-{[3-(2,3-dihydro-1,4-benzodioxin-6-yl)-2-methylphenyl]amino}-1,7-naphthyridin-4-yl)methyl]amino}ethanol] | ≤ 10 nM
Cc1c(Nc2nccc3c(CN4CCCCC4C(=O)O)ccnc23)cccc1-c1ccc2c(c1)OCCO2 (stereo not drawn) [Example 13, 1-[(8-{[3-(2,3-dihydro-1,4-benzodioxin-6-yl)-2-methylphenyl]amino}-1,7-naphthyridin-4-yl)methyl]piperidine-2-carboxylic Acid] | 10 to 100 nM
Cc1c(Nc2nccc3nc(CNCCO)cnc23)cccc1-c1ccccc1 [Example 14, 2-[({5-[(2-methylbiphenyl-3-yl)amino]pyrido[3,4-b]pyrazin-2-yl}methyl)amino]ethanol] | ≤ 10 nM
Cc1c(Nc2nccc3nc(CN4CCCC[C@H]4C(=O)O)cnc23)cccc1-c1ccccc1 [Example 15, (2S)-1-({5-[(2-methylbiphenyl-3-yl)amino]pyrido[3,4-b]pyrazin-2-yl}methyl)piperidine-2-carboxylic Acid] | 10 to 100 nM
N#Cc1c(Nc2nccc3cc(CNCCO)cnc23)cccc1-c1ccc2c(c1)OCCO2 [Example 16, 2-(2,3-dihydro-1,4-benzodioxin-6-yl)-6-[(3-{[(2-hydroxyethyl)amino]methyl}-1,7-naphthyridin-8-yl)amino]benzonitrile] | ≤ 10 nM
Cc1c(Nc2nccc3cc(CNCCO)cnc23)cccc1-c1ccc2c(c1)OCCO2 [Example 17, 2-{[(8-{[3-(2,3-dihydro-1,4-benzodioxin-6-yl)-2-methylphenyl]amino}-1,7-naphthyridin-3-yl)methyl]amino}ethanol] | ≤ 10 nM
Cc1c(Nc2nccc3cc(CNCCO)cnc23)cccc1C1=CCCCC1 [Example 18, 2-[({8-[(3-cyclohex-1-en-1-yl-2-methylphenyl)amino]-1,7-naphthyridin-3-yl}methyl)amino]ethanol] | ≤ 10 nM
N#Cc1c(Nc2nccc3cc(CNCCO)cnc23)cccc1-c1ccccc1 [Example 19, 3-[(3-{[(2-hydroxyethyl)amino]methyl}-1,7-naphthyridin-8-yl)amino]biphenyl-2-carbonitrile] | ≤ 10 nM
N#Cc1c(Nc2nccc3cc(CNCCO)cnc23)cccc1C1=CCCCC1 [Example 20, 2-cyclohex-1-en-1-yl-6-[(3-{[(2-hydroxyethyl)amino]methyl}-1,7-naphthyridin-8-yl)amino]benzonitrile] | ≤ 10 nM
N#Cc1c(Nc2nccc3cc(CNCCO)cnc23)cccc1C1CCCCC1 [Example 21, 2-cyclohexyl-6-[(3-{[(2-hydroxyethyl)amino]methyl}-1,7-naphthyridin-8-yl)amino]benzonitrile] | 10 to 100 nM
